Where a name gives a salt, the structure may show the parent alone.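 Results reflect a 48-hour exposure of cells in 96-well plates to compound at five concentrations. The concentration for 50% growth inhibition is given as GI50.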 The source made the active and inactive calls. Rule as the data show it: active = GI50 up to about 1.1 µM and inactive = higher.

This note sets out measurements from ChEMBL document CHEMBL1201862, “PubChem BioAssay data set” (2004).

Among the test systems are SK-OV-3; HCT-15; SF-539; MDA-MB-435; NCI-H23; SK-MEL-28; OVCAR-5; HCT-116; SK-MEL-2; SF-268; NCI-H460; A549; BT-549; EKVX; MOLT-4; K562; MDA-MB-231.
What all share (assay): inhibition of tumour cell growth, NCI panel, 48 h

`Cc1c2c(n3c(nc4ccccc43)c1C#N)N(c1ccc(F)cc1)CC2`: the GI50 was 74.5 µM (inactive) in the assay on SK-OV-3; more than 100 µM in the assay on HCT-15; > 100 µM (inactive) in the assay with SF-539; > 100 µM (inactive) with MDA-MB-435; > 100 µM (inactive) with NCI-H23; > 100 µM (inactive) in the assay on SK-MEL-28. Also, the GI50 in the assay on OVCAR-5, with HCT-116, in the assay with SK-MEL-2, with SF-268, in the assay on NCI-H460 and in the assay with A549 was > 100 µM (inactive) throughout. Further, the GI50 in the assay with BT-549 is > 100 µM (inactive).
`COc1ccc(-c2nc(-c3cnccn3)n(C3OC(CO)C(O)C3O)n2)cc1` (configuration not stated): the GI50 in the assay with SK-OV-3 was > 10 µM (inactive); in the assay with EKVX, > 10 µM (inactive); in the assay with MOLT-4, > 10 µM (inactive); in the assay with HCT-15, more than 10 µM; in the assay with SF-539 it was > 10 µM (inactive); in the assay with MDA-MB-435, > 10 µM (inactive). Also, the GI50 in the assay with NCI-H23, in the assay with OVCAR-5, with K562, with SK-MEL-2, in the assay with SF-268 and in the assay on NCI-H460 was > 10 µM (inactive) throughout. Moreover, the GI50 with A549 and with BT-549 was > 10 µM (inactive) in each case.
As for `COc1ccc2c(c1)/C(=C(\C(Cl)=C(\Cl)N1CCCCC1)[N+](=O)[O-])N2`, the GI50 is > 100 µM (inactive) in the assay with SK-OV-3; 48.9 µM (inactive) in the assay with EKVX; 27.2 µM (inactive) in the assay with MOLT-4; > 100 µM (inactive) with MDA-MB-231; more than 100 µM with HCT-15; > 100 µM (inactive) with MDA-MB-435. Besides, the GI50 in the assay with NCI-H23 is > 100 µM (inactive); with SK-MEL-28 it was > 100 µM (inactive); with OVCAR-5, > 100 µM (inactive); in the assay with HCT-116, > 100 µM (inactive); in the assay on K562, 42.1 µM (inactive); in the assay with SF-268, > 100 µM (inactive). Moreover, the results for the GI50 in the assay on NCI-H460, in the assay with A549 and in the assay on BT-549 were > 100 µM (inactive), > 100 µM (inactive) and 98.6 µM (inactive), respectively.
As for `CN(C)c1c(Cl)c(=O)oc2c1ccc1nc(-c3ccccc3)sc12`, the GI50 is > 100 µM (inactive) with EKVX; > 100 µM (inactive) in the assay with MOLT-4; > 100 µM (inactive) in the assay on MDA-MB-231; more than 100 µM in the assay with HCT-15; > 100 µM (inactive) in the assay with SF-539; > 100 µM (inactive) in the assay with MDA-MB-435. Also, the GI50 in the assay on NCI-H23, in the assay with SK-MEL-28, with OVCAR-5, in the assay on HCT-116, in the assay with K562 and with SF-268 was > 100 µM (inactive) in each case. Also, the GI50 with NCI-H460, with A549 and with BT-549 was > 100 µM (inactive) throughout.
As to `O/N=C1\CC2(N3CCOCC3)CCC1(c1ccccc1)CC2`, the GI50 in the assay on SK-OV-3 is > 100 µM (inactive); in the assay with EKVX, > 100 µM (inactive); with MOLT-4, > 100 µM (inactive); in the assay on HCT-15, more than 100 µM; in the assay with SF-539, > 100 µM (inactive); with MDA-MB-435, > 100 µM (inactive). The GI50 with NCI-H23, in the assay on SK-MEL-28, in the assay on OVCAR-5, with HCT-116, in the assay on K562 and in the assay on SK-MEL-2 was > 100 µM (inactive) throughout. For the same compound, the GI50 with SF-268, in the assay with NCI-H460, in the assay on A549 and in the assay with BT-549 was > 100 µM (inactive) throughout.
Take `CCCCCCC(C)CC(CCCCCC)NCCOC(=O)c1ccc([N+](=O)[O-])cc1` (configuration not stated): the GI50 in the assay on SK-OV-3 is 16.3 µM (inactive); with EKVX, 13.7 µM (inactive); with MDA-MB-231, 10.4 µM (inactive); with HCT-15 it was 14.3 µM; with SF-539, 15.8 µM (inactive); with NCI-H23, 18 µM (inactive). Moreover, the GI50 was 12.6 µM (inactive) with SK-MEL-28; 31.2 µM (inactive) in the assay on OVCAR-5; 11.7 µM (inactive) in the assay with HCT-116; < 0.01 µM (active) with K562; 15.8 µM (inactive) in the assay on SK-MEL-2; 16.3 µM (inactive) with SF-268. In addition, the GI50 in the assay on A549 was 15.6 µM (inactive); with BT-549, 16.4 µM (inactive).
Consider `CC1(C)C2CCC3CC(CCC#N)CCC3C21C#N` (configuration not stated), for which the GI50 in the assay on SK-OV-3 is > 100 µM (inactive); in the assay on EKVX, > 100 µM (inactive); in the assay with MOLT-4, > 100 µM (inactive); in the assay on MDA-MB-231 it was > 100 µM (inactive); in the assay with HCT-15, more than 100 µM; in the assay on SF-539, > 100 µM (inactive). Further, the GI50 in the assay with MDA-MB-435, in the assay with NCI-H23, with SK-MEL-28, in the assay with OVCAR-5, in the assay with HCT-116 and with K562 was > 100 µM (inactive) throughout. The GI50 in the assay with SK-MEL-2, in the assay with SF-268, with NCI-H460 and with A549 was > 100 µM (inactive) in each case.
As to `CC1(C)C=C(/C=N/Nc2ccccc2)C(C#N)=C(O)C1(C#N)C#N`, the GI50 in the assay on SK-OV-3 was > 100 µM (inactive); with EKVX, > 100 µM (inactive); in the assay with MOLT-4, 57.7 µM (inactive); in the assay with MDA-MB-231, > 100 µM (inactive); in the assay on SF-539, > 100 µM (inactive); in the assay on MDA-MB-435, > 100 µM (inactive). The GI50 with NCI-H23 was > 100 µM (inactive); in the assay with SK-MEL-28, > 100 µM (inactive); in the assay with OVCAR-5 it was > 100 µM (inactive); in the assay on HCT-116, > 100 µM (inactive); with K562, 56.5 µM (inactive); with SF-268 it was > 100 µM (inactive). Also, the results for the GI50 in the assay on NCI-H460 and in the assay with A549 were 92.7 µM (inactive) and > 100 µM (inactive), respectively.
With `Cc1nnc2n1N=C(c1cc(F)c(Cl)cc1Cl)/C(=C/c1ccc(-c3ccc([N+](=O)[O-])cc3)o1)S2`, the GI50 was > 100 µM (inactive) with SK-OV-3; > 100 µM (inactive) in the assay with EKVX; 29.2 µM (inactive) in the assay on MOLT-4; 53.5 µM in the assay on HCT-15; 50.4 µM (inactive) with MDA-MB-435; 34.3 µM (inactive) with NCI-H23. Also, the GI50 with SK-MEL-28 was > 100 µM (inactive); in the assay with OVCAR-5 it was > 100 µM (inactive); in the assay on HCT-116 it was 46.1 µM (inactive); with K562, 31.8 µM (inactive); with SK-MEL-2 it was 42.6 µM (inactive); in the assay on SF-268, > 100 µM (inactive). For the same compound, the GI50 was > 100 µM (inactive) with NCI-H460, > 100 µM (inactive) in the assay on A549 and 58.2 µM (inactive) in the assay on BT-549.
For `O=c1[nH]c(=O)n(C2CC(O)C(CO)O2)cc1Oc1ccccc1` (configuration not stated), the GI50 in the assay with SK-OV-3 is > 100 µM (inactive); in the assay with EKVX it was > 100 µM (inactive); in the assay on MOLT-4, > 100 µM (inactive); with MDA-MB-231 it was > 100 µM (inactive); in the assay on HCT-15, more than 100 µM; with MDA-MB-435, > 100 µM (inactive). Also, the GI50 in the assay on NCI-H23, in the assay on SK-MEL-28, in the assay with OVCAR-5, in the assay on HCT-116, in the assay on K562 and with SF-268 was > 100 µM (inactive) in each case. The GI50 in the assay on NCI-H460, with A549 and in the assay on BT-549 was > 100 µM (inactive) throughout.
Take `c1csc(-c2ccsc2-c2cccs2)c1`: the GI50 in the assay with SK-OV-3 is > 100 µM (inactive); in the assay with EKVX, > 100 µM (inactive); in the assay with MOLT-4 it was 11.9 µM (inactive); with HCT-15, 31 µM; with SF-539, > 100 µM (inactive); with MDA-MB-435 it was 24.4 µM (inactive). The GI50 is 13.3 µM (inactive) with NCI-H23; > 100 µM (inactive) with OVCAR-5; 92.9 µM (inactive) in the assay with HCT-116; > 100 µM (inactive) in the assay with SF-268; 80.9 µM (inactive) in the assay on NCI-H460; 19.2 µM (inactive) in the assay with A549.
As for `COc1ccccc1-c1cc(O)c2ccc(C)nc2n1`, the GI50 is > 100 µM (inactive) in the assay on SK-OV-3; 97.3 µM (inactive) in the assay on EKVX; > 100 µM (inactive) in the assay with MOLT-4; > 100 µM (inactive) with MDA-MB-231; 43.4 µM in the assay with HCT-15; > 100 µM (inactive) in the assay on SF-539. For the same compound, the GI50 in the assay on NCI-H23 was > 100 µM (inactive); with SK-MEL-28 it was > 100 µM (inactive); with OVCAR-5 it was > 100 µM (inactive); in the assay on K562, 58.9 µM (inactive); in the assay with SK-MEL-2, > 100 µM (inactive); with SF-268, > 100 µM (inactive). The GI50 in the assay with A549 and in the assay on BT-549 was > 100 µM (inactive) throughout.
With `C[C@@H](Oc1ccc(Oc2cnc3ccc(Cl)cc3n2)cc1)C(=O)O` [R(+)XK469], the GI50 in the assay on SK-OV-3 was > 100 µM (inactive); in the assay with MOLT-4 it was > 100 µM (inactive); in the assay with HCT-15, more than 100 µM; in the assay on SF-539 it was > 100 µM (inactive); in the assay on MDA-MB-435, > 100 µM (inactive); with NCI-H23, > 100 µM (inactive). The GI50 was > 100 µM (inactive) in the assay on SK-MEL-28; > 100 µM (inactive) in the assay on OVCAR-5; 94.2 µM (inactive) with HCT-116; > 100 µM (inactive) with SK-MEL-2; > 100 µM (inactive) with SF-268; 11.2 µM (inactive) with NCI-H460. For the same compound, the GI50 in the assay on A549 is 55.5 µM (inactive); in the assay with BT-549, > 100 µM (inactive).
Regarding `CN(C)CCOc1ccc(/C(=C(/CCCl)c2ccccc2)c2ccccc2)cc1` [TOREMIFENE CITRATE], the GI50 with EKVX is 15.9 µM (inactive); in the assay with MOLT-4, 18.7 µM (inactive); in the assay on MDA-MB-231, 16.4 µM (inactive); in the assay on HCT-15, 14.7 µM; with SF-539 it was 16.2 µM (inactive); in the assay with MDA-MB-435, 17.4 µM (inactive). The GI50 was 17.5 µM (inactive) in the assay on NCI-H23; 16 µM (inactive) in the assay with SK-MEL-28; 18.1 µM (inactive) with OVCAR-5; 16.7 µM (inactive) in the assay on HCT-116; 11.5 µM (inactive) in the assay on K562; 15.5 µM (inactive) in the assay with SK-MEL-2. The GI50 in the assay with SF-268 was 17.4 µM (inactive); in the assay with NCI-H460, 15.7 µM (inactive); in the assay on A549, 16.3 µM (inactive).
